Laboratory results taken from PMC5082902, “Exported Epoxide Hydrolases Modulate Erythrocyte Vasoactive Lipids during Plasmodium falciparum Infection” (mBio, 2016).

Tests used:
Assay in all cases: ELISA of […]([…])-DHET diol product
Format in all cases: biochemical
Conditions in all cases: 6 or 12 uM EET, 100 ug enzyme in 100 ul PBS, 37 C, 1.5 h
[1] = biological target: T1, PfEH1 (Plasmodium falciparum, UniProt Q9Y013)
T1 construct: gene PF3D7_0301300; borders of the construct only in supplement

[2] = biological target: T2, PfEH2 (Plasmodium falciparum, UniProt Q8IM75)
T2 construct: gene PF3D7_1401300; borders of the construct only in supplement

[3] = biological target: T2, PfEH2; remark: listed apart in the source

T2 sequence (Q8IM75 entry or part of it): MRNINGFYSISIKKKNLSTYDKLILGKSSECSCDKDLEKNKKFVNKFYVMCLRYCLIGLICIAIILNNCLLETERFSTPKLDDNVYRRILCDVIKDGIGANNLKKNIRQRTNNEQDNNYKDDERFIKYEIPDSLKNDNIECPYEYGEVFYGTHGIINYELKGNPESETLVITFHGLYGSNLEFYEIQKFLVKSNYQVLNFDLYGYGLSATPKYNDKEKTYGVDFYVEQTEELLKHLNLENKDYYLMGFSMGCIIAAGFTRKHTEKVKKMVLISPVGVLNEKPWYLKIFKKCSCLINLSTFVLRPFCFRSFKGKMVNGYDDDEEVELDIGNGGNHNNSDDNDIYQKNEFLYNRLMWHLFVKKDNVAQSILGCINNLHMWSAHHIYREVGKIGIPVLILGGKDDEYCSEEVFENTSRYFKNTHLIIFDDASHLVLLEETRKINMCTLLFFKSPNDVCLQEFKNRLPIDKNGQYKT
T1 sequence (Q9Y013 entry or part of it): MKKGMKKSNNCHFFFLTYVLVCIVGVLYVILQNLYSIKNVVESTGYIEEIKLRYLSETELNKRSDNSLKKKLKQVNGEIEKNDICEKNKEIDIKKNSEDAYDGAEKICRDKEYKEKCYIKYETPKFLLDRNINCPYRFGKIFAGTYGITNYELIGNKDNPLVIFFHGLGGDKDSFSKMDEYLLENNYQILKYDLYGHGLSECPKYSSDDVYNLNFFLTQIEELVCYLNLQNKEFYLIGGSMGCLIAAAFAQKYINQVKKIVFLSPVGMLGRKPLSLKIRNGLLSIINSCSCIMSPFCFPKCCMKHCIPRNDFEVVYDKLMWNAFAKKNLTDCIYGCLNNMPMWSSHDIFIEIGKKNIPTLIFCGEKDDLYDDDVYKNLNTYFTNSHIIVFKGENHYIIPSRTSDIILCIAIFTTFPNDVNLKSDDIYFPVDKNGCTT

Row | Structure (SMILES) | ELISA of 11(12)-DHET diol product [1] | ELISA of 11(12)-DHET diol product [2] | ELISA of 14(15)-DHET diol product [3]
1 | CCCCC/C=C\CC1OC1C/C=C\C/C=C\CCCC(=O)O (stereo not drawn) [11(12)-EET] | Both recombinant PfEH1 and PfEH2 enzymes increased the formation of the diol product | Both recombinant PfEH1 and PfEH2 enzymes increased the formation of the diol product | 
2 | CCCCCC1OC1C/C=C\C/C=C\C/C=C\CCCC(=O)O (stereo not drawn) [14(15)-EET] |  |  | Both recombinant PfEH1 and PfEH2 enzymes increased the formation of the diol product
